Patent publication US11560372B2, “Heterocyclic compounds useful as modulators of acetylcholine receptors” (TAKEDA PHARMACEUTICAL COMPANY LIMITED, priority 2017, dated 2023)

Biological target: T1, MDR1 (Homo sapiens, UniProt P08183)
T1 construct: expressed in transfected cells
Assay: MDR1 membrane permeability test
Format: in vitro ADME
Conditions: pH 7.4, efflux ratio (ER), Papp B to A / A to B, human MDR1-expressing LLC-PK1 cells, read-out: MDR1 substrate screening 1 μM (MDRSUB1)/Ratio (NUMBER)
Protocol: MDR1 Membrane Permeability Test
When MDR1 is expressed in excess in LLC-PK1 cell, which is a polar cell, MDR1 is localized in apical membrane (A), thus promoting transcellular transport from the basement membrane side (B) toward direction A. When a ratio to the transcellular transport in the opposite direction is taken and a ratio to a control cell in which a mock vector has been introduced is further taken, an efflux ratio of MDR1 to simple diffusion (corrected efflux ratio) is calculated. Similarly, when a brain/plasma concentration ratio in Mdr1(−/−) mouse is divided by a brain/plasma concentration ratio in wild-type mouse, an efflux ratio of Mdr1 to simple diffusion in BBB (Kp, brain ratio, higher value means lower central nervous system permeability) is calculated. Adachi Y. et al. (Reference 1) has reported a positive correlation between corrected efflux ratio and Kp, brain ratio (FIG. 5(C)), and efflux ratio in MDR1 expressing cell and Kp, brain ratio (FIG. 5(B)).
To confirm the central nervous system permeability of the compounds of the present invention, a MDR1 membrane permeability test was performed by the following method.
Human MDR1-expressing LLC-PK1 cells were cultured according to the report of Takeuchi et al. (Reference 2). Human MDR1-expressing LLC-PK1 cells were cultured in 10% fetal bovine serum (Invitrogen), 500 μg/ml G418 (Invitrogen), 150 ng/ml colchicine-containing M199 medium (Invitrogen) under 5% CO2 conditions at 37° C.
Transcellular transport was performed according to the report of Sugimoto et al. (Reference 3). The cells were cultured for 3 days on HTS Transwell (registered trademark) 96 well permeable support (pore size 0.4 μm, 0.143 cm^2 surface area, Corning Life Sciences) having polyethylene terephthalate membrane on which the cells had been seeded at 3.45×10^4 cells/well. After preincubation in M199 medium (containing 10 mmol/L HEPES, 1% BSA, pH 7.4) for 30 min, a drug solution (10 μmol/L digoxin, 200 μmol/L LY, […]) dissolved in M199 medium was added to the apical side or basolateral side of the Transwell by 75 or 250 μL each and the cells were cultured under 5% CO2 conditions at 37° C. After 1 hr, the sample was collected from the side opposite to the side where the drug solution was added, and the concentration of the test compound was measured by LC-MS/MS. As an internal standard substance, 100 ng/mL alprenolol and diclofenac were used. The analysis conditions were as follows.
Papp, A to B and Papp, B to A (apparent permeability) were calculated from the formula (1), and the efflux ratio (ER) was calculated from the formula (2).

T1 sequence (P08183 whole entry): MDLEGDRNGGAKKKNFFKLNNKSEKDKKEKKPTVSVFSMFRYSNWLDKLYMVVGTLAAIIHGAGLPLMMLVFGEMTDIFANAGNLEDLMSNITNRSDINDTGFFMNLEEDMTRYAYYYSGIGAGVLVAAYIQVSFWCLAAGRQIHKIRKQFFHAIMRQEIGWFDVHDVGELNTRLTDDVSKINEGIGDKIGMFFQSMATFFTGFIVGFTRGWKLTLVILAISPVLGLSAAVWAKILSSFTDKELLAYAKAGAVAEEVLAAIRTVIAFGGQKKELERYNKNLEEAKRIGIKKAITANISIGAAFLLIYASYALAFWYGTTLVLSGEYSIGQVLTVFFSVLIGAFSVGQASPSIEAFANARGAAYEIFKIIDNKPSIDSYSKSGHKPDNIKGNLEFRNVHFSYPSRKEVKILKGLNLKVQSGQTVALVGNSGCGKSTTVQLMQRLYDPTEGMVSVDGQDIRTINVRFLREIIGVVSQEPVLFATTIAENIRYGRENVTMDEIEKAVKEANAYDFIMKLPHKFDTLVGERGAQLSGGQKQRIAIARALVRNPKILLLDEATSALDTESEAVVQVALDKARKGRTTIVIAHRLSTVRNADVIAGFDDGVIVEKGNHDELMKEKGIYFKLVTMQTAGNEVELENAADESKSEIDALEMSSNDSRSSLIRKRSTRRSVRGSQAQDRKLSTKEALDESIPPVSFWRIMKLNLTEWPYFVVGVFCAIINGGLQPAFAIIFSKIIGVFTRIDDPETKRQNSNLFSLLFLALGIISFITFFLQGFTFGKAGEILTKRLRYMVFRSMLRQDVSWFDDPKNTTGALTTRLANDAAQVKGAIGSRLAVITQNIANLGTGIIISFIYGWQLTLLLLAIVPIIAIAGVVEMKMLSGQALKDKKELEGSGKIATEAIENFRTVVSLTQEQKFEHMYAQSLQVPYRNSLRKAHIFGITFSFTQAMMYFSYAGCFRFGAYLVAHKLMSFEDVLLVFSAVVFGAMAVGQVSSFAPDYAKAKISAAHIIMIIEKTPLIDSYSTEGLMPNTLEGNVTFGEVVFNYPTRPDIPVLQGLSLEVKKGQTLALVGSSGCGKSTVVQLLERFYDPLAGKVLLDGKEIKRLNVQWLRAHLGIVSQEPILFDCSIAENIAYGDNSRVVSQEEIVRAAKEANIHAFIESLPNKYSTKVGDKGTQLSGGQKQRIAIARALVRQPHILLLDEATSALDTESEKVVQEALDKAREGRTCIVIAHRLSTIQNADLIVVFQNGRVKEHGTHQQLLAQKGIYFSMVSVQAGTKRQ

SMILES | efflux ratio at 1 hr, 1 μM
Cc1c(Cc2ccc(C(=O)NCCCF)cc2)cc2c(=O)n([C@H]3CCOC[C@@H]3O)cnc2c1C [Example 34, 1,5-anhydro-2,3-dideoxy-3-(6-(4-((3-fluoropropyl)carbamoyl)benzyl)-7,8-dimethyl-4-oxoquinazolin-3 (4H)-yl)-L-threo-pentitol] | 20
Cc1c(Cc2ccc(-c3cn(C)nn3)nc2)cc2c(=O)n([C@H]3CCOC[C@@H]3O)cnc2c1Cl [Example 14, 1,5-anhydro-3-(8-chloro-7-methyl-6-((6-(1-methyl-1H-1,2,3-triazol-4-yl)pyridin-3-yl)methyl)-4-oxoquinazolin-3(4H)-yl)-2,3-dideoxy-L-threo-pentitol] | 22
Cc1c(Cc2ccc(C(=O)NC3CC3)cc2)cc2c(=O)n([C@H]3CCOC[C@@H]3O)cnc2c1C [Example 44, 1,5-anhydro-3-(6-(4-(cyclopropylcarbamoyl)benzyl)-7,8-dimethyl-4-oxoquinazolin-3 (4H)-yl)-2,3-dideoxy-L-threo pentitol] | 22
Cc1nn(C)cc1-c1ccc(Cc2cc3c(=O)n([C@H]4CCOC[C@@H]4O)cnc3c(F)c2C)cn1 [Example 23, 1,5-anhydro-2,3-dideoxy-3-(6-((6-(1,3-dimethyl-1H-pyrazol-4-yl)pyridin-3-yl)methyl)-8-fluoro-7-methyl-4-oxoquinazolin-3(4H)-yl)-L-threo-pentitol] | 19
Cc1c(Cc2ccc(-c3cnn(C(C)(C)C)c3)nc2)cc2c(=O)n([C@H]3CCOC[C@@H]3O)cnc2c1C [Example 72, 1,5-anhydro-3-(6-((6-(1-tert-butyl-1H-pyrazol-4-yl)pyridin-3-yl)methyl)-7,8-dimethyl-4-oxoquinazolin-3(4H)-yl)-2,3-dideoxy-L-threo-pentitol] | 2.9
Cc1c(Cc2ccc(C(=O)NCCC(F)(F)F)cc2)cc2c(=O)n([C@H]3CCOC[C@@H]3O)cnc2c1C [Example 53, 1,5-anhydro-2,3-dideoxy-3-(7,8-dimethyl-4-oxo-6-(4-((3,3,3-trifluoropropyl)carbamoyl)-benzyl)quinazolin-3 (4H)-yl)-L-threo-pentitol] | 8.3
Cc1c(Cc2ccc(C(=O)NCCCS(C)(=O)=O)c(F)c2)cc2c(=O)n([C@H]3CCOC[C@@H]3O)cnc2c1C [Example 70, 1,5-anhydro-2,3-dideoxy-3-(6-(3-fluoro-4-((3-(methylsulfonyl)propyl)-carbamoyl)benzyl)-7,8-dimethyl-4-oxoquinazolin-3 (4H)-yl)-L-threo-pentitol] | 13
Cc1c(Cc2ccc(C(=O)NCCF)cc2)cc2c(=O)n([C@H]3CCOC[C@@H]3O)cnc2c1C [Example 37, 1,5-anhydro-2,3-dideoxy-3-(6-(4-((2-fluoroethyl)carbamoyl)benzyl)-7,8-dimethyl-4-oxoquinazolin-3 (4H)-yl)-L-threo-pentitol] | 12
Cc1ccc(Cc2cc3c(=O)n([C@H]4CCOC[C@@H]4O)cnc3c(C)c2C)cn1 [Example 7, 1,5-anhydro-2,3-dideoxy-3-(7,8-dimethyl-6-((6-methylpyridin-3-yl)methyl)-4-oxoquinazolin-3(4H)-yl)-L-threo-pentitol] | 3.5
Cc1c(Cc2ccc(C(=O)NC3(C)CC3)cc2)cc2c(=O)n([C@H]3CCOC[C@@H]3O)cnc2c1C [Example 43, 1,5-anhydro-2,3-dideoxy-3-(7,8-dimethyl-6-(4-((1-methylcyclopropyl)carbamoyl)-benzyl)-4-oxoquinazolin-3 (4H)-yl)-L-threo-pentitol] | 12
Cc1c(Cc2ccc(-c3cn(C)nn3)cc2)cc2c(=O)n([C@H]3CCOC[C@@H]3O)cnc2c1F [Example 22, 1,5-anhydro-2,3-dideoxy-3-(8-fluoro-7-methyl-6-(4-(1-methyl-1H-1,2,3-triazol-4-yl)benzyl)-4-oxoquinazolin-3(4H)-yl)-L-threo-pentitol] | 12
CNC(=O)c1ccc(Cc2cc3c(=O)n([C@H]4CCOC[C@@H]4O)nnc3c(C)c2C)cn1 [Example 91, 1,5-anhydro-2,3-dideoxy-3-(7,8-dimethyl-6-((6-(methylcarbamoyl)pyridin-3-yl)methyl)-4-oxo-1,2,3-benzotriazin-3 (4H)-yl)-L-threo-pentitol] | 5.9
Cc1c(Cc2ccc(-n3cccn3)cc2)cc2c(=O)n([C@H]3CCOC[C@@H]3O)nnc2c1C [Comparative Example 2, 3-((3R,4S)-3-hydroxytetrahydro-2H-pyran-4-yl)-7,8-dimethyl-6-(4-(1H-pyrazol-1-yl)benzyl)-1,2,3-benzotriazin-4(3H)-one, reference compound] | 1.3

Next, values leading:

efflux ratio at 1 hr, 1 μM | SMILES
36 | COc1cc2ncn([C@H]3CCOC[C@@H]3O)c(=O)c2cc1Cc1ccc(-c2cn(C)nn2)nc1 [Example 64, 1,5-anhydro-2,3-dideoxy-3-(7-methoxy-6-((6-(1-methyl-1H-1,2,3-triazol-4-yl)pyridin-3-yl)methyl)-4-oxoquinazolin-3 (4H)-yl)-L-threo-pentitol]
17 | Cc1nn(C)cc1-c1ccc(Cc2cc3c(=O)n([C@H]4CCOC[C@@H]4O)cnc3c(Cl)c2C)cn1 [Example 12, 1,5-anhydro-3-(8-chloro-6-((6-(1,3-dimethyl-1H-pyrazol-4-yl)pyridin-3-yl)methyl)-7-methyl-4-oxoquinazolin-3(4H)-yl)-2,3-dideoxy-L-threo-pentitol]
16 | Cc1c(Cc2ccc(C(=O)NC3(C#N)CC3)c(F)c2)cc2c(=O)n([C@H]3CCOC[C@@H]3O)cnc2c1C [Example 89, 1,5-anhydro-3-(6-(4-((1-cyanocyclopropyl)carbamoyl)-3-fluorobenzyl)-7,8-dimethyl-4-oxoquinazolin-3 (4H)-yl)-2,3-dideoxy-L-threo-pentitol]
11 | CCNC(=O)c1ccc(Cc2cc3c(=O)n([C@H]4CCOC[C@@H]4O)cnc3c(C)c2C)cc1 [Example 28, 1,5-anhydro-2,3-dideoxy-3-(6-(4-(ethylcarbamoyl)benzyl)-7,8-dimethyl-4-oxoquinazolin-3 (4H)-yl)-L-threo-pentitol]
24 | Cc1c(Cc2ccc(C(=O)NC3(C)COC3)cc2)cc2c(=O)n([C@H]3CCOC[C@@H]3O)cnc2c1C [Example 26, 1,5-anhydro-2,3-dideoxy-3-(7,8-dimethyl-6-(4-((3-methyloxetan-3-yl)carbamoyl)benzyl)-4-oxoquinazolin-3(4H)-yl)-L-threo-pentitol]
26 | Cc1c(Cc2ccc(C(=O)NC3CCOCC3)cc2)cc2c(=O)n([C@H]3CCOC[C@@H]3O)cnc2c1C [Example 32, 1,5-anhydro-2,3-dideoxy-3-(7,8-dimethyl-4-oxo-6-(4-(tetrahydro-2H-pyran-4-ylcarbamoyl)benzyl)quinazolin-3 (4H)-yl)-L-threo-pentitol]
56 | Cc1c(Cc2ccc(C(=O)NCCN3CCCC3)c(F)c2)cc2c(=O)n([C@H]3CCOC[C@@H]3O)cnc2c1C [Example 78, 1,5-anhydro-2,3-dideoxy-3-(6-(3-fluoro-4-((2-(pyrrolidin-1-yl)ethyl)carbamoyl)benzyl)-7,8-dimethyl-4-oxoquinazolin-3 (4H)-yl)-L-threo-pentitol]
3.2 | CNC(=O)c1ccc(Cc2cc3c(=O)n([C@H]4CCOC[C@@H]4O)nnc3c(C)c2C)cc1F [Example 55, 1,5-anhydro-2,3-dideoxy-3-(6-(3-fluoro-4-(methylcarbamoyl)benzyl)-7,8-dimethyl-4-oxo-1,2,3-benzotriazin-3 (4H)-yl)-L-threo-pentitol]
6.8 | Cc1ccc(Cc2cc3c(=O)n([C@H]4CCOC[C@@H]4O)cnc3c(Cl)c2C)cn1 [Example 16, 1,5-anhydro-3-(8-chloro-7-methyl-6-((6-methylpyridin-3-yl)methyl)-4-oxoquinazolin-3(4H)-yl)-2,3-dideoxy-L-threo-pentitol]
18 | Cc1c(Cc2ccc(C(=O)N3CC(C(F)F)C3)cc2)cc2c(=O)n([C@H]3CCOC[C@@H]3O)cnc2c1C [Example 52, 1,5-anhydro-2,3-dideoxy-3-(6-(4-((3-(difluoromethyl)azetidin-1-yl)carbonyl)benzyl)-7,8-dimethyl-4-oxoquinazolin-3 (4H)-yl)-L-threo-pentitol]
